Where a SMILES comes first, the peptide text is derived from it.
Columns and labels:
Type in all cases: cell-based
CHO-K1 cells = assay: Cytotoxicity of nanocomplex using MTT assay
Description: (§1) FIG. 3: Cell viability measured via MTT assay and CellTitreGLO assay. CHO-K1 cells and HACAT cells were treated with arginines-histidine-cysteine based peptides comprising nanocomplexes (at charge ratio 10.0) and a Lipofectamine™/Cellfectin™/Superfect™-DNA complex for 4 hours and cell viability was assessed after 24 hours. Untreated cells are taken as control and their absorbance (in the presence of MTT reagent and cell titre GLO reagent) is set as 100% and relative decrease in absorbance is taken as measure of cell viability.
(§2) CHO-K1 cells were seeded at density of 7000 cells per well in 96 well plate format in Hams F12K media containing 10% FBS at 37° C. and 5% CO2 in humidified incubator. After 24 hours cells were washed with serum free media and treated with different nanocomplex at Z=10.0 (in quadruplets) for 4 hours, keeping DNA concentration 200 ng/well. The viability was assayed after 4 hrs and 24 hrs (in the latter case nanocomplex containing media was replaced with complete media after 4 hrs) of transfection. Briefly 100 ul of MTT reagent (0.5 mg/ml) was added to each well and incubated at 37° C. for 2 hrs to allow formation of formazan crystals. […] Following incubation 100 ul MTT detergent buffer (0.5 ml 10% SDS and 0.06 ml 12N HCl in 10 ml isopropanol) was added to each well and crystals were dissolved by gentle shaking for 30 mins. Finally the absorbance was recorded at 550 nm and 670 nm (to negate debris) along with the blank using ELISA plate reader. The percentage viability was calculated by Treated wells (OD550−OD670)/Untreated well (OD550−OD670)*100. The average of two independent experiments is plotted where each treatment is performed in quadruplets.

[1] = Cytotoxicity of nanocomplex using MTT assay; details: CHO-K1 cells, charge ratio 10.0, treated 4 hours; read-out: cell viability
Description: as §1, §2

[2] = test system: CHO-K1 cells and HACAT cells; assay: Cell viability / cytotoxicity, cell line not stated (MTT and CellTitreGLO); details: cell line not stated
Description: as §1
CHO-K1 cells were seeded at density of 7000 cells per well in 96 well plate format in Hams F12K media containing 10% FBS at 37° C. and 5% CO2 in humidified incubator. […] Finally the absorbance was recorded at 550 nm and 670 nm (to negate debris) along with the blank using ELISA plate reader. The percentage viability was calculated by Treated wells (OD550−OD670)/Untreated well (OD550−OD670)*100. […]
The experiment was performed in 96 well plate format wherein the Hacat cells were seeded at 50000 cells per well in DMEM-F12 media containing 10% FBS at 37° C. and 5% CO2 in humidified incubator. […] The plate was then kept in dark for 10 mins at RT for stabilization of the luminescence signal. The reading was recorded on Tecan system and plotted as % cell viability.

[3] = Cytotoxicity estimation using Celltitre GLO method; details: human; Hacat cells, charge ratio 10.0, treated 4 hours; read-out: cell viability
Description: as §1
(§3) The experiment was performed in 96 well plate format wherein the Hacat cells were seeded at 50000 cells per well in DMEM-F12 media containing 10% FBS at 37° C. and 5% CO2 in humidified incubator. After 24 hours cells were washed with serum free media and treated with nanocomplex at Z=10.0 (in quadruplets) for 4 hours, keeping DNA concentration 200 ng/well. The viability was assayed after 4 hrs and 24 hrs (in the latter case nanocomplex containing media was replaced with complete media after 4 hrs) of transfection. Initially the plate was equilibrated for 30 mins at RT followed by addition of 100 ul of cell titre GLO reagent with continuous shaking on rotor for 2 mins to allow cell lysis. The plate was then kept in dark for 10 mins at RT for stabilization of the luminescence signal. The reading was recorded on Tecan system and plotted as % cell viability.

Hacat cells = assay: Cytotoxicity estimation using Celltitre GLO method
Description: as §1, §3

SMILES | cell viability compared to Cellfectin and Superfect transfection agents (CHO-K1 cells) | viability at 4 h [1] [%] | cytotoxicity [2] | viability at 4 h [3] [%] | cell viability compared to Cellfectin (Hacat cells)
N=C(N)NCCC[C@H](NC(=O)[C@H](CCCNC(=N)N)NC(=O)[C@H](CCCNC(=N)N)NC(=O)[C@H](CCCNC(=N)N)NC(=O)[C@H](Cc1c[nH]cn1)NC(=O)[C@H](Cc1c[nH]cn1)NC(=O)[C@H](Cc1c[nH]cn1)NC(=O)[C@H](Cc1c[nH]cn1)NC(=O)[C@H](CCCNC(=N)N)NC(=O)[C@H](CCCNC(=N)N)NC(=O)[C@H](CCCNC(=N)N)NC(=O)[C@H](CCCNC(=N)N)NC(=O)[C@H](CCCNC(=N)N)NC(=O)[C@@H](N)CS)C(=O)N[C@@H](Cc1c[nH]cn1)C(=O)N[C@@H](Cc1c[nH]cn1)C(=O)N[C@@H](Cc1c[nH]cn1)C(=O)N[C@@H](CS)C(=O)O [CR5H4R4H3C, CRRRRRHHHHRRRRHHHC] (H-CRRRRRHHHHRRRRHHHC-OH) | comparable | 80 to 90 | minimal | 80 to 90 | comparable
N=C(N)NCCC[C@H](NC(=O)[C@H](Cc1c[nH]cn1)NC(=O)[C@H](CCCNC(=N)N)NC(=O)[C@H](Cc1c[nH]cn1)NC(=O)[C@H](CCCNC(=N)N)NC(=O)[C@H](Cc1c[nH]cn1)NC(=O)[C@H](CCCNC(=N)N)NC(=O)[C@H](Cc1c[nH]cn1)NC(=O)[C@H](CCCNC(=N)N)NC(=O)[C@H](Cc1c[nH]cn1)NC(=O)[C@H](CCCNC(=N)N)NC(=O)[C@H](Cc1c[nH]cn1)NC(=O)[C@H](CCCNC(=N)N)NC(=O)[C@H](Cc1c[nH]cn1)NC(=O)[C@H](CCCNC(=N)N)NC(=O)[C@H](CCCNC(=N)N)NC(=O)[C@@H](N)CS)C(=O)N[C@@H](CS)C(=O)O [CR(RH)7RC, CRRHRHRHRHRHRHRHRC] (H-CRRHRHRHRHRHRHRHRC-OH) | comparable | 70 to 80 | minimal | 80 to 90 | comparable
